Common to all, as to format: in vivo
Common to all, as to conditions: 312 h, evaluated after 13 days, 100=total damage to plant, 0=no damage to plant

Experiment [1] deals with Setaria faberi (SETFA). Nature of the experiment: Post-emergence biological efficacy. The method, then:
(§1) Seeds of weeds and/or crops were sown in standard soil in pots (Amaranthus palmeri (AMAPA), Chenopodium album (CHEAL), Euphorbia heterophylla (EPHHL), Ipomoea hederacea (IPOHE), Eleusine indica (ELEIN), Lolium perenne (LOLPE), Digitaria sanguinalis (DIGSA), Setaria faberi (SETFA), Echinochloa crus-galli (ECHCG)). After cultivation for 14 days under controlled conditions in a glasshouse (at 24/19° C., day/night; 16 hours light), the plants were sprayed with an aqueous spray solution derived from the formulation of the technical active ingredient in a small amount of acetone and a special solvent and emulsifier mixture referred to as IF50 (11.12% Emulsogen EL360™+44.44% N-methylpyrrolidone+44.44% Dowanol DPM glycol ether), to create a 50 g/l solution which was then diluted using 0.2% Genapol XO80 as diluent to give the desired final dose of test compound. The test plants were then grown under controlled conditions in the glasshouse (at 24/18° C., day/night; 15 hours light; 50% humidity) and watered twice daily. After 13 days the test was evaluated (100=total damage to plant; 0=no damage to plant).

In experiment [2] the test system is Eleusine indica (ELEIN). Nature of the experiment: Post-emergence biological efficacy. Here is the method: as §1
The subject of experiment [3] is Ipomoea hederacea (IPOHE). Nature of the experiment: Post-emergence biological efficacy. The method, then:
as §1

The subject of experiment [4] is Lolium perenne (LOLPE). Nature of the experiment: Post-emergence biological efficacy. The method, then: as §1
Experiment [5] relates to Euphorbia heterophylla (EPHHL). Nature of the experiment: Post-emergence biological efficacy. Here is the method: as §1
Experiment [6] has as its system Amaranthus palmeri (AMAPA). Nature of the experiment: Post-emergence biological efficacy. Here is the method: as §1
Experiment [7] has as its system Chenopodium album (CHEAL). Nature of the experiment: Post-emergence biological efficacy. The method, then: as §1
Experiment [8] deals with Echinochloa crus-galli (ECHCG). Nature of the experiment: Post-emergence biological efficacy. Here is the method:
as §1

In experiment [9] the test system is Digitaria sanguinalis (DIGSA). Nature of the experiment: Post-emergence biological efficacy. The method, then: as §1
In experiment [10] the test system is Setaria faberi (SETFA). Nature of the experiment: Pre-emergence biological efficacy. Here is the method:
(§2) Seeds of weeds and/or crops were sown in standard soil in pots (Amaranthus palmeri (AMAPA), Lolium perenne (LOLPE), Euphorbia heterophylla (EPHHL), Ipomoea hederacea (IPOHE), Setaria faberi (SETFA), Echinochloa crus-galli (ECHCG)). After cultivation for one day under controlled conditions in a glasshouse (at 24/19° C., day/night; 16 hours light), the plants were sprayed with an aqueous spray solution derived from the formulation of the technical active ingredient in a small amount of acetone and a special solvent and emulsifier mixture referred to as IF50 (11.12% Emulsogen EL360™+44.44% N-methylpyrrolidone+44.44% Dowanol DPM glycol ether), to create a 50 g/l solution which was then diluted using 0.2% Genapol XO80 as diluent to give the desired final dose of test compound.
(§3) The test plants were then grown under controlled conditions in the glasshouse (at 24/18° C., day/night; 15 hours light; 50% humidity) and watered twice daily. After 13 days the test was evaluated (100=total damage to plant; 0=no damage to plant).

For experiment [11], the system named is Ipomoea hederacea (IPOHE). Nature of the experiment: Pre-emergence biological efficacy. Here is the method: as §2, §3
In experiment [12] the test system is Lolium perenne (LOLPE). Nature of the experiment: Pre-emergence biological efficacy. Here is the method:
as §2, §3

For experiment [13], the system named is Euphorbia heterophylla (EPHHL). Nature of the experiment: Pre-emergence biological efficacy. Here is the method: as §2, §3
Experiment [14] relates to Amaranthus palmeri (AMAPA). Nature of the experiment: Pre-emergence biological efficacy. Here is the method:
as §2, §3

Experiment [15] relates to Echinochloa crus-galli (ECHCG). Nature of the experiment: Pre-emergence biological efficacy. Here is the method: as §2, §3

As to `CCOC(=O)C(CC)OC(=O)c1cc(-n2c(=O)n(C)c(=S)n(C)c2=O)c(F)cc1Cl` (stereo not shown) [Compound 1-114, 1-Ethoxycarbonylpropyl 2-chloro-5-(3,5-dimethyl-2,6-dioxo-4-thioxo-1,3,5-triazinan-1-yl)-4-fluoro-benzoate], the pest or weed control at 250 g/ha in experiment [1] worked out at 30%; in experiment [2], 20%; in experiment [3], 40%; in [4], 30%; in experiment [5], 70%; in experiment [6], 20%. Besides, the pest or weed control at 250 g/ha in experiment [7] is 70%; in experiment [8], 60%; in experiment [9], 20%; in [10], 10%; in [11] it was 10%; in [12], 70%. For the same molecule, the values for the pest or weed control at 250 g/ha in experiment [13], in [14] and in experiment [15] were 40%, 100% and 100%, respectively.
Take `CCOC(=O)CC(CC)OC(=O)c1cc(-n2c(=O)n(C)c(=S)n(C)c2=O)c(F)cc1Cl` (stereo not shown) [Compound 1-420, (3-Ethoxy-1-ethyl-3-oxo-propyl) 2-chloro-5-(3,5-dimethyl-2,6-dioxo-4-thioxo-1,3,5-triazinan-1-yl)-4-fluoro-benzoate]: the pest or weed control at 250 g/ha worked out at 90% in experiment [1]; 50% in [2]; 50% in experiment [3]; 100% in [4]; 70% in [5]; 100% in experiment [6]. Also, the pest or weed control at 250 g/ha was determined as 100% in [7]; 40% in [8]; 30% in experiment [9]; 100% in experiment [10]; 30% in experiment [11]; 90% in experiment [12]. In addition, the pest or weed control at 250 g/ha in [13], in experiment [14] and in experiment [15] was 100% each time.
For the molecule `COC(=O)CNC(=O)c1cc(-n2c(=O)n(C)c(=S)n(C)c2=O)c(F)cc1Cl` [Compound 1-35, Methyl 2-[[2-chloro-5-(3,5-dimethyl-2,6-dioxo-4-thioxo-1,3,5-triazinan-1-yl)-4-fluoro-benzoyl]amino]acetate], the pest or weed control at 250 g/ha turned out to be 40% in experiment [1]; 40% in experiment [2]; 50% in experiment [3]; 10% in experiment [4]; 70% in experiment [5]; 30% in [6]. Besides, the pest or weed control at 250 g/ha stood at 20% in experiment [7]; 40% in experiment [8]; 40% in experiment [9]; 10% in experiment [10]; 0% in [11]; 70% in [12]. Moreover, the pest or weed control at 250 g/ha in [13] came to 40%; in experiment [14], 30%; in experiment [15] it was 80%.
With `CCOC(=O)CCNC(=O)c1cc(-n2c(=O)n(C)c(=S)n(C)c2=O)c(F)cc1Cl` [Compound 1-342, Ethyl 3-[[2-chloro-5-(3,5-dimethyl-2,6-dioxo-4-thioxo-1,3,5-triazinan-1-yl)-4-fluoro-benzoyl]amino]propanoate], the pest or weed control at 250 g/ha in [1] was 80%; in experiment [2], 10%; in experiment [3] it was 70%; in [4], 20%; in [5] it was 40%; in experiment [6], 30%. Further, the pest or weed control at 250 g/ha in experiment [7] came to 30%; in [8], 80%; in experiment [9], 50%; in experiment [10], 80%; in experiment [11] it was 60%; in experiment [12] it was 70%. The figures for the pest or weed control at 250 g/ha in experiment [13], in experiment [14] and in experiment [15] were 90%, 80% and 90%, respectively.
In the case of `CCOC(=O)C(Cl)COC(=O)c1cc(-n2c(=O)n(C)c(=S)n(C)c2=O)c(F)cc1Cl` (stereo not shown) [Compound 1-675, (2-Chloro-3-ethoxy-3-oxo-propyl) 2-chloro-5-(3,5-dimethyl-2,6-dioxo-4-thioxo-1,3,5-triazinan-1-yl)-4-fluoro-benzoate], the pest or weed control at 250 g/ha in experiment [1] was determined as 90%; in [2] it was 90%; in [3], 100%; in [4], 80%; in [5] it was 90%; in [6], 100%. In addition, the pest or weed control at 250 g/ha in experiment [7] worked out at 100%; in experiment [8], 80%; in [9], 90%; in experiment [10] it was 90%; in experiment [11], 40%; in [12], 90%. The pest or weed control at 250 g/ha came to 80% in experiment [13], 100% in experiment [14] and 100% in experiment [15].
Turning to `CCOC(=O)C[C@H](C)OC(=O)c1cc(-n2c(=O)n(C)c(=S)n(C)c2=O)c(F)cc1Cl` [Compound 1-369 (S-enantiomer), [(1S)-3-ethoxy-1-methyl-3-oxo-propyl]-2-chloro-5-(3,5-dimethyl-2,6-dioxo-4-thioxo-1,3,5-triazinan-1-yl)-4-fluoro-benzoate], the pest or weed control at 250 g/ha was found to be 100% in experiment [1]; 100% in [2]; 90% in [3]; 100% in [4]; 100% in experiment [5]; 100% in [6]. Further, the pest or weed control at 250 g/ha was 100% in experiment [7]; 100% in experiment [8]; 100% in [9]; 100% in experiment [10]; 50% in experiment [11]; 90% in experiment [12]. Moreover, the pest or weed control at 250 g/ha in experiment [13] was determined as 90%; in experiment [14], 100%; in [15] it was 100%.
In the case of `CCOC(=O)C1(N(C)C(=O)c2cc(-n3c(=O)n(C)c(=S)n(C)c3=O)c(F)cc2Cl)CC1` [Compound 1-252, Ethyl 1-[[2-chloro-5-(3,5-dimethyl-2,6-dioxo-4-thioxo-1,3,5-triazinan-1-yl)-4-fluoro-benzoyl]-methyl-amino]cyclopropanecarboxylate], the pest or weed control at 250 g/ha in experiment [1] was 0%; in experiment [2] it was 50%; in experiment [3], 30%; in experiment [4], 40%; in experiment [5], 40%; in experiment [6], 50%. In addition, the pest or weed control at 250 g/ha in experiment [7] was determined as 70%; in experiment [8], 0%; in experiment [9] it was 0%; in experiment [14], 100%.

As usually defined, the pest or weed control is how far the test organism was held down.

The values above are taken from patent publication US20250127170A1, “TRIAZINE HERBICIDAL COMPOUNDS” (SYNGENTA CROP PROTECTION AG, priority 2021, published 2025).
